# How the values were obtained:
# Human primary lung cells = test: CellTiter-Glo Luminescent Cell Viability Assay after ALI exposure in the CCES, human primary lung cells; type: cell-based; details: 2 h ALI exposure, 4 h post-exposure, Inc. Ct. = 100; for CellTiter-Glow viability, Average: average of 3 experiments
# Method: (§1) The Cell Culture Exposure System (CCES) provides the ability to expose cultured mammalian cells to airborne chemicals at ALI conditions in a 24-well format.
# Human primary lung cells were collected by cytology brush biopsy during bronchoscopy at EPA clinical facility in Chapel Hill. Cells were cultured by standard procedures and were provided to EPA/RTP.
# Cells were cultured and plated onto Transwell membranes and grown out for 28 days as described in OP.
# (§2) Cells were placed into new 24-well plates with fresh growth media and put at ALI 2 h prior to exposure. […] Control cells were exposed simultaneously to clean air for 2 h in a separate chamber. Another set of control cells were kept at ALI in an incubator (37° C., 5% CO2) for 2 h. After the exposure, cells were placed in an incubator (37° C., 5% CO2) for 4 h. A total of three exposures were conducted for each cell type.
# (§3) The CellTiter-Glo® Luminescent Cell Viability Assay (Promega) determines the number of viable cells based on quantification of the ATP present; an indicator of metabolically active cells. […] Two inserts per exposure condition were measured for each run.
# BEAS-2B cells = test: CellTiter-Glo Luminescent Cell Viability Assay after ALI exposure in the CCES, BEAS-2B cells; type: cell-based, human; details: 2 h ALI exposure, 4 h post-exposure, Inc. Ct. = 100; for CellTiter-Glow viability, Average: average of 3 experiments
# Method: as §1
# The BEAS-2B cell line, obtained from ATTC, is an immortalized human bronchial epithelial lung cell.
# Cells were grown out on T75 cm^2 flasks in complete Keratinocyte Growth Media (KGM) (KGM-Gold Bullet Kit, Lonza®). Cells were passaged and seeded onto 6.5 mm (24-well format) permeable (0.4-μm pore size) Transwell polyester membranes at passages 55 and 56. Prior to seeding, Transwells were coated with PureCol® bovine collagen (Advanced Biometrix) at a density of 10 μg/cm^2. Cells were seeded at 3.0×10^4 cells per Transwell membranes 48 h prior to exposure and at 1.5×10^4 per Transwell membrane 72 h prior to exposure to obtain a confluent monolayer. Cells were seeded on 4 inserts per exposure condition for each run.
# as §2, §3
compound,measurement,setting,value
"C=CC=C [1,3-Butadiene, 1,3-butadiene]","CellTiter-Glow viability, May 3, 2017",Human primary lung cells; 0.16 ppm,110.9
same,"CellTiter-Glow viability, May 4, 2017",Human primary lung cells; 0.16 ppm,99.9
same,"CellTiter-Glow viability, May 5, 2017",Human primary lung cells; 0.16 ppm,90.1
same,"CellTiter-Glow viability, Average",Human primary lung cells; 0.16 ppm,100.3
same,"CellTiter-Glow viability, May 3, 2017",Human primary lung cells; 0.5 ppm,118.5
same,"CellTiter-Glow viability, May 4, 2017",Human primary lung cells; 0.5 ppm,86.3
same,"CellTiter-Glow viability, May 5, 2017",Human primary lung cells; 0.5 ppm,94.2
same,"CellTiter-Glow viability, Average",Human primary lung cells; 0.5 ppm,99.6
same,"CellTiter-Glow viability, May 3, 2017",Human primary lung cells; 1.7 ppm,120.3
same,"CellTiter-Glow viability, May 4, 2017",Human primary lung cells; 1.7 ppm,91.8
same,"CellTiter-Glow viability, May 5, 2017",Human primary lung cells; 1.7 ppm,101.4
same,"CellTiter-Glow viability, Average",Human primary lung cells; 1.7 ppm,104.5
same,"CellTiter-Glow viability, May 3, 2017",Human primary lung cells; 5 ppm,122.0
same,"CellTiter-Glow viability, May 4, 2017",Human primary lung cells; 5 ppm,112.0
same,"CellTiter-Glow viability, May 5, 2017",Human primary lung cells; 5 ppm,98.6
same,"CellTiter-Glow viability, Average",Human primary lung cells; 5 ppm,110.8
same,"CellTiter-Glow viability, May 3, 2017",Human primary lung cells; 16 ppm,128.1
same,"CellTiter-Glow viability, May 4, 2017",Human primary lung cells; 16 ppm,101.3
same,"CellTiter-Glow viability, May 5, 2017",Human primary lung cells; 16 ppm,98.9
same,"CellTiter-Glow viability, Average",Human primary lung cells; 16 ppm,109.4
same,"CellTiter-Glow viability, May 3, 2017",Human primary lung cells; 50 ppm,104.7
same,"CellTiter-Glow viability, May 4, 2017",Human primary lung cells; 50 ppm,92.7
same,"CellTiter-Glow viability, May 5, 2017",Human primary lung cells; 50 ppm,95.4
same,"CellTiter-Glow viability, Average",Human primary lung cells; 50 ppm,97.6
same,"CellTiter-Glow Viability, May 10, 2017",BEAS-2B cells; 0.16 ppm,96.27
same,"CellTiter-Glow Viability, May 11, 2017",BEAS-2B cells; 0.16 ppm,87.14
same,"CellTiter-Glow Viability, May 12, 2017",BEAS-2B cells; 0.16 ppm,96.95
same,"CellTiter-Glow viability, Average",BEAS-2B cells; 0.16 ppm,93.45
same,"CellTiter-Glow Viability, May 10, 2017",BEAS-2B cells; 0.5 ppm,101.8
same,"CellTiter-Glow Viability, May 11, 2017",BEAS-2B cells; 0.5 ppm,89.3
same,"CellTiter-Glow Viability, May 12, 2017",BEAS-2B cells; 0.5 ppm,96.1
same,"CellTiter-Glow viability, Average",BEAS-2B cells; 0.5 ppm,95.73
same,"CellTiter-Glow Viability, May 10, 2017",BEAS-2B cells; 1.7 ppm,94.35
same,"CellTiter-Glow Viability, May 11, 2017",BEAS-2B cells; 1.7 ppm,94.49
same,"CellTiter-Glow Viability, May 12, 2017",BEAS-2B cells; 1.7 ppm,95.83
same,"CellTiter-Glow viability, Average",BEAS-2B cells; 1.7 ppm,94.89
same,"CellTiter-Glow Viability, May 10, 2017",BEAS-2B cells; 5 ppm,105.3
same,"CellTiter-Glow Viability, May 11, 2017",BEAS-2B cells; 5 ppm,81.9
same,"CellTiter-Glow Viability, May 12, 2017",BEAS-2B cells; 5 ppm,96.8
same,"CellTiter-Glow viability, Average",BEAS-2B cells; 5 ppm,94.66
same,"CellTiter-Glow Viability, May 10, 2017",BEAS-2B cells; 16 ppm,101.5
same,"CellTiter-Glow Viability, May 11, 2017",BEAS-2B cells; 16 ppm,87.31
same,"CellTiter-Glow Viability, May 12, 2017",BEAS-2B cells; 16 ppm,79.14
same,"CellTiter-Glow viability, Average",BEAS-2B cells; 16 ppm,89.33
same,"CellTiter-Glow Viability, May 10, 2017",BEAS-2B cells; 50 ppm,105.1
same,"CellTiter-Glow Viability, May 11, 2017",BEAS-2B cells; 50 ppm,71.1
same,"CellTiter-Glow Viability, May 12, 2017",BEAS-2B cells; 50 ppm,9.72
same,"CellTiter-Glow viability, Average",BEAS-2B cells; 50 ppm,61.99
